Measured values as given in PubChem BioAssay AID212 (DTP/NCI, 2004).
Several values for one entry are separate records, joined by “and”; a condition that tells them apart may be missing. Equal entries are not always repeated. Inconclusive results are not listed.

System: BDF1 mice, colon carcinoma 38 sc, T/C %
Assay: NCI In Vivo Anticancer Drug Screen. Data for tumor model Colon Carcinoma 38 (subcutaneous) in B6D2F1 (BDF1) mice
How it was run: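 T/C readout: treated group (T) measurement over vehicle control group (C) measurement. Endpoint is survival or tumor size in mice bearing a transplanted tumor.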

[1] = endpoint: median tumor weight (est.), dose: 12.5 mg/kg/injection, schedule: Q07DX002 (ip), vehicle: saline, higher = larger tumour
[2] = endpoint: median tumor weight (est.), dose: 25.0 mg/kg/injection, schedule: Q07DX002 (ip), vehicle: saline, higher = larger tumour
[3] = endpoint: median tumor weight (est.), dose: 50.0 mg/kg/injection, schedule: Q07DX002 (ip), vehicle: saline, higher = larger tumour
[4] = endpoint: median tumor weight (est.), dose: 100.0 mg/kg/injection, schedule: Q07DX002 (ip), vehicle: saline, higher = larger tumour
[5] = endpoint: median tumor weight (est.), dose: 100.0 mg/kg/injection, schedule: Q07DX002 (ip), vehicle: saline with Tween-80, higher = larger tumour
[6] = endpoint: median tumor weight (est.), dose: 12.5 mg/kg/injection, schedule: Q07DX002 (ip), vehicle: saline with Tween-80, higher = larger tumour
[7] = endpoint: median tumor weight (est.), dose: 50.0 mg/kg/injection, schedule: Q07DX002 (ip), vehicle: saline with Tween-80, higher = larger tumour
[8] = endpoint: median tumor weight (est.), dose: 25.0 mg/kg/injection, schedule: Q07DX002 (ip), vehicle: saline with Tween-80, higher = larger tumour

In the case of O=C(O)CC(NC(=O)CP(=O)(O)O)C(=O)O.[NH-]C1CCCCC1[NH-].[Pt+2] (stereo not drawn), the T/C (endpoint: median tumor weight (est.), dose: 1.56 mg/kg/injection, schedule: Q07DX002 (ip), vehicle: dextrose, higher = larger tumour) is reported as 103 % of control, the T/C (endpoint: median tumor weight (est.), dose: 3.12 mg/kg/injection, schedule: Q07DX002 (ip), vehicle: dextrose, higher = larger tumour) is reported as 77 % of control and 87 % of control and the T/C (endpoint: median tumor weight (est.), dose: 6.25 mg/kg/injection, schedule: Q07DX002 (ip), vehicle: dextrose, higher = larger tumour) is reported as 85 % of control and 90 % of control. For the same compound, the T/C (endpoint: median tumor weight (est.), dose: 12.5 mg/kg/injection, schedule: Q07DX002 (ip), vehicle: dextrose, higher = larger tumour) was 64 % of control and 65 % of control, the T/C (endpoint: median tumor weight (est.), dose: 25.0 mg/kg/injection, schedule: Q07DX002 (ip), vehicle: dextrose, higher = larger tumour) was 44 % of control and 54 % of control and the T/C (endpoint: median tumor weight (est.), dose: 50.0 mg/kg/injection, schedule: Q07DX002 (ip), vehicle: dextrose, higher = larger tumour) was 14 % of control.
With O=[N+]([O-])O.O=[N+]([O-])O.[NH-]C1CCCCC1[NH-].[Pt+2] (stereo not drawn) the T/C (endpoint: median tumor weight (est.), dose: 0.5 mg/kg/injection, schedule: Q07DX002 (ip), vehicle: dextrose, higher = larger tumour) was 101 % of control, the T/C (endpoint: median tumor weight (est.), dose: 2.0 mg/kg/injection, schedule: Q07DX002 (ip), vehicle: dextrose, higher = larger tumour) was 62 % of control and 81 % of control and the T/C (endpoint: median tumor weight (est.), dose: 4.0 mg/kg/injection, schedule: Q07DX002 (ip), vehicle: dextrose, higher = larger tumour) was 62 % of control and 81 % of control. The T/C (endpoint: median tumor weight (est.), dose: 8.0 mg/kg/injection, schedule: Q07DX002 (ip), vehicle: dextrose, higher = larger tumour) was 27 % of control and 33 % of control.
In the case of Nc1ncnc2c1ncn2C1OC(CO)C(O)C1O (stereo not drawn), the T/C [1] is reported as 103 % of control, the T/C [2] is reported as 115 % of control and the T/C (endpoint: median tumor weight (est.), dose: 25.0 mg/kg/injection, schedule: Q07DX003 (ip), vehicle: saline, higher = larger tumour) is reported as 233 % of control. The T/C [3] was 85 % of control, the T/C (endpoint: median tumor weight (est.), dose: 50.0 mg/kg/injection, schedule: Q07DX003 (ip), vehicle: saline, higher = larger tumour) was 238 % of control and the T/C (endpoint: median tumor weight (est.), dose: 75.0 mg/kg/injection, schedule: Q07DX002 (ip), vehicle: saline, higher = larger tumour) was 80 % of control. The T/C [4] was 110 % of control, the T/C (endpoint: median tumor weight (est.), dose: 150.0 mg/kg/injection, schedule: Q07DX002 (ip), vehicle: saline, higher = larger tumour) was 97 % of control and the T/C (endpoint: median tumor weight (est.), dose: 300.0 mg/kg/injection, schedule: Q07DX002 (ip), vehicle: saline, higher = larger tumour) was 105 % of control. The T/C (endpoint: median tumor weight (est.), dose: 600.0 mg/kg/injection, schedule: Q07DX002 (ip), vehicle: saline, higher = larger tumour) was 116 % of control.
In the case of S=C=NCCc1ccccc1, the T/C [5] is reported as 82 % of control and 105 % of control.
For NC(=O)Nc1cc(NC(N)=O)cc(N(CCCl)CCCl)c1, the T/C (endpoint: median tumor weight (est.), dose: 10.0 mg/kg/injection, schedule: Q07DX002 (ip), vehicle: Klucel (hydroxypropylcellulose) (HPC), higher = larger tumour) was 89 % of control, the T/C (endpoint: median tumor weight (est.), dose: 20.0 mg/kg/injection, schedule: Q07DX002 (ip), vehicle: Klucel (hydroxypropylcellulose) (HPC), higher = larger tumour) was 68 % of control and the T/C (endpoint: median tumor weight (est.), dose: 40.0 mg/kg/injection, schedule: Q07DX002 (ip), vehicle: Klucel (hydroxypropylcellulose) (HPC), higher = larger tumour) was 96 % of control.
With COC1=C2C[C@@H](C)C[C@@H](OC)[C@@H](O)[C@H](C)/C=C(\C)[C@@H](OC(N)=O)[C@H](OC)/C=C\C=C(/C)C(=O)NC(=CC1=O)C2=O the T/C (endpoint: median tumor weight (est.), dose: 0.25 mg/kg/injection, schedule: Q07DX002 (ip), vehicle: saline with Tween-80, higher = larger tumour) was 92 % of control and 100 % of control, the T/C (endpoint: median tumor weight (est.), dose: 0.5 mg/kg/injection, schedule: Q07DX002 (ip), vehicle: saline with Tween-80, higher = larger tumour) was 86 % of control and the T/C (endpoint: median tumor weight (est.), dose: 1.0 mg/kg/injection, schedule: Q07DX002 (ip), vehicle: saline with Tween-80, higher = larger tumour) was 108 % of control. For the same compound, the T/C (endpoint: median tumor weight (est.), dose: 2.0 mg/kg/injection, schedule: Q07DX002 (ip), vehicle: saline with Tween-80, higher = larger tumour) was 94 % of control, the T/C (endpoint: median tumor weight (est.), dose: 4.0 mg/kg/injection, schedule: Q07DX002 (ip), vehicle: saline with Tween-80, higher = larger tumour) was 98 % of control and the T/C (endpoint: median tumor weight (est.), dose: 8.0 mg/kg/injection, schedule: Q07DX002 (ip), vehicle: saline with Tween-80, higher = larger tumour) was 92 % of control and 94 % of control.
With Nc1ccc(S(=O)(=O)c2ccc(N)cc2)cc1 the T/C (endpoint: median tumor weight (est.), dose: 6.25 mg/kg/injection, schedule: Q07DX002 (ip), vehicle: saline with Tween-80, higher = larger tumour) was 154 % of control, the T/C [6] was 111 % of control and the T/C [7] was 85 % of control and 92 % of control. For the same compound, the T/C (endpoint: median tumor weight (est.), dose: 56.0 mg/kg/injection, schedule: Q07DX002 (ip), vehicle: saline with Tween-80, higher = larger tumour) was 109 % of control, the T/C (endpoint: median tumor weight (est.), dose: 450.0 mg/kg/injection, schedule: Q07DX002 (ip), vehicle: saline with Tween-80, higher = larger tumour) was 87 % of control and the T/C (endpoint: median tumor weight (est.), dose: 900.0 mg/kg/injection, schedule: Q07DX002 (ip), vehicle: saline with Tween-80, higher = larger tumour) was 71 % of control.
With CCCCCCCCCCCC(=O)NC1CC(O[C@H]2C[C@](O)(C(=O)CO)Cc3c(O)c4c(c(O)c32)C(=O)c2c(OC)cccc2C4=O)OC(C)C1O (stereo partly drawn) the T/C (endpoint: median survival time, dose: 17.0 mg/kg/injection, schedule: Q07DX003 (iv), vehicle: saline, higher = longer survival) was 97 % of control, the T/C (endpoint: median survival time, dose: 43.0 mg/kg/injection, schedule: Q07DX003 (iv), vehicle: saline, higher = longer survival) was 123 % of control and the T/C (endpoint: median survival time, dose: 70.0 mg/kg/injection, schedule: Q07DX003 (iv), vehicle: saline, higher = longer survival) was 103 % of control. For the same compound, the T/C (endpoint: median tumor weight (est.), dose: 28.7 mg/kg/injection, schedule: Q07DX002 (ip), vehicle: distilled water + Tween-80, higher = larger tumour) was 96 % of control and the T/C (endpoint: median tumor weight (est.), dose: 56.3 mg/kg/injection, schedule: Q07DX002 (ip), vehicle: distilled water + Tween-80, higher = larger tumour) was 101 % of control.
With O=C1C(O)=C(c2ccccc2)C(=O)C(O)=C1c1ccccc1 the T/C [6] was 103 % of control, the T/C [1] was 89 % of control and the T/C [8] was 111 % of control. For the same compound, the T/C [2] was 55 % of control, the T/C [7] was 86 % of control and the T/C [3] was 106 % of control. For the same compound, the T/C [4] was 105 % of control and the T/C (endpoint: median tumor weight (est.), dose: 200.0 mg/kg/injection, schedule: Q07DX002 (ip), vehicle: saline, higher = larger tumour) was 102 % of control.
In the case of CN1C(=O)NC(c2ccc(Cl)cc2)(c2ccc(Cl)cc2)C1=O, the T/C (endpoint: median tumor weight (est.), dose: 12.5 mg/kg/injection, schedule: Q07DX002 (ip), vehicle: distilled water + Tween-80, higher = larger tumour) is reported as 95 % of control, the T/C (endpoint: median tumor weight (est.), dose: 25.0 mg/kg/injection, schedule: Q07DX002 (ip), vehicle: distilled water + Tween-80, higher = larger tumour) is reported as 105 % of control and the T/C (endpoint: median tumor weight (est.), dose: 50.0 mg/kg/injection, schedule: Q07DX002 (ip), vehicle: distilled water + Tween-80, higher = larger tumour) is reported as 51 % of control. For the same compound, the T/C (endpoint: median tumor weight (est.), dose: 100.0 mg/kg/injection, schedule: Q07DX002 (ip), vehicle: distilled water + Tween-80, higher = larger tumour) was 97 % of control, the T/C (endpoint: median tumor weight (est.), dose: 200.0 mg/kg/injection, schedule: Q07DX002 (ip), vehicle: distilled water + Tween-80, higher = larger tumour) was 52 % of control and the T/C (endpoint: median tumor weight (est.), dose: 400.0 mg/kg/injection, schedule: Q07DX002 (ip), vehicle: distilled water + Tween-80, higher = larger tumour) was 58 % of control.
With CN(C)N=Nc1cn[nH]c1C(N)=O the T/C (endpoint: median tumor weight (est.), dose: 6.25 mg/kg/injection, schedule: Q07DX002 (ip), vehicle: Klucel (hydroxypropylcellulose) (HPC), higher = larger tumour) was 102 % of control.
For CC1CC2OC2/C=C\C=C\C(=O)Cc2c(Cl)c(O)cc(O)c2C(=O)O1 (stereo not drawn), the T/C (endpoint: median tumor weight (est.), dose: 30.0 mg/kg/injection, schedule: Q07DX002 (ip), vehicle: Klucel (hydroxypropylcellulose) (HPC), higher = larger tumour) was 72 % of control, the T/C (endpoint: median tumor weight (est.), dose: 60.0 mg/kg/injection, schedule: Q07DX002 (ip), vehicle: Klucel (hydroxypropylcellulose) (HPC), higher = larger tumour) was 74 % of control and the T/C (endpoint: median tumor weight (est.), dose: 120.0 mg/kg/injection, schedule: Q07DX002 (ip), vehicle: Klucel (hydroxypropylcellulose) (HPC), higher = larger tumour) was 105 % of control.
O=C(O)CSc1c(Cl)c(=O)oc2ccc(Cl)cc12 was tested, and the T/C (endpoint: median tumor weight (est.), dose: 25.0 mg/kg/injection, schedule: Q07DX002 (ip), vehicle: Klucel (hydroxypropylcellulose) (HPC), higher = larger tumour) was 93 % of control, the T/C (endpoint: median tumor weight (est.), dose: 50.0 mg/kg/injection, schedule: Q07DX002 (ip), vehicle: Klucel (hydroxypropylcellulose) (HPC), higher = larger tumour) was 113 % of control and the T/C (endpoint: median tumor weight (est.), dose: 100.0 mg/kg/injection, schedule: Q07DX002 (ip), vehicle: Klucel (hydroxypropylcellulose) (HPC), higher = larger tumour) was 81 % of control. The T/C (endpoint: median tumor weight (est.), dose: 200.0 mg/kg/injection, schedule: Q07DX002 (ip), vehicle: Klucel (hydroxypropylcellulose) (HPC), higher = larger tumour) was 120 % of control.
In the case of C=C1CCOC2(C(O)C(C)(O)CO)NC(=O)C1(O)NC2=O (stereo not drawn), the T/C (endpoint: median tumor weight (est.), dose: 225.0 mg/kg/injection, schedule: Q07DX002 (ip), vehicle: saline, higher = larger tumour) is reported as 104 % of control, the T/C (endpoint: median tumor weight (est.), dose: 450.0 mg/kg/injection, schedule: Q07DX002 (ip), vehicle: saline, higher = larger tumour) is reported as 74 % of control and the T/C (endpoint: median tumor weight (est.), dose: 900.0 mg/kg/injection, schedule: Q07DX002 (ip), vehicle: saline, higher = larger tumour) is reported as 81 % of control. The T/C (endpoint: median tumor weight (est.), dose: 1800.0 mg/kg/injection, schedule: Q07DX002 (ip), vehicle: saline, higher = larger tumour) was 46 % of control.
O=C(Nc1nncs1)c1cccs1 was tested, and the T/C [5] was 87 % of control and 88 % of control.
For O=C1N=C(Oc2ccccc2)SC1=O, the T/C [6] was 95 % of control, the T/C [8] was 62 % of control and 80 % of control and the T/C [7] was 53 % of control. The T/C [5] was 88 % of control and the T/C (endpoint: median tumor weight (est.), dose: 200.0 mg/kg/injection, schedule: Q07DX002 (ip), vehicle: saline with Tween-80, higher = larger tumour) was 118 % of control.
